From PMC6270666, “Flavonoids with M1 Muscarinic Acetylcholine Receptor Binding Activity” (Molecules, 2014)
Where two headings read alike, the source gives them in different places.

Columns and labels:
cloned human M1 mAChRs = target: T1, cloned human M1 mAChRs (Homo sapiens, UniProt P11229); assay: M1 mAChR radioligand binding assay ([3H]N-methylscopolamine displacement)
T1 construct: purchased Perkin Elmer; host or cells: stably transfected CHO-K1 cell lines (membrane preparation)
T1 sequence (P11229 1-460): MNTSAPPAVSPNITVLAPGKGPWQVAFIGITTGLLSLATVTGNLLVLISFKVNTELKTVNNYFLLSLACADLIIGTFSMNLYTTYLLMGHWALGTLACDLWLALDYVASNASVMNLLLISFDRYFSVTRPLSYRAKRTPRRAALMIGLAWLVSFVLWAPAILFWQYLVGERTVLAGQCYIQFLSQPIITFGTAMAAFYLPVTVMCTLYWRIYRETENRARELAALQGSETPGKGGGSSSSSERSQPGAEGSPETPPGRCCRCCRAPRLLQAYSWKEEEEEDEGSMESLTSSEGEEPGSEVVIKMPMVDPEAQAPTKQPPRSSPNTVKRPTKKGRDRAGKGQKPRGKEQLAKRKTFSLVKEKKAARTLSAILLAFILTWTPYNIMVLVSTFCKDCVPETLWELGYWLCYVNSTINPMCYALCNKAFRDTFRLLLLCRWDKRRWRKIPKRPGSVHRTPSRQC

cholinesterase = test system: cholinesterase; design: method as in PMID 20030514; conditions: cited from earlier work
[1] = test system: SH-SY5Y neuroblastoma cells; conditions: cited from earlier work
[2] = test system: amyloid β25-35 peptide-induced toxicity in mice; conditions: cited from earlier work
[3] = test system: streptozotocin-induced diabetic rats; design: method as in PMID 23415807; conditions: cited from earlier work
DYRK1A = test system: DYRK1A; design: method as in PMID 22673832; conditions: cited from earlier work
CLK1 = test system: CLK1; design: method as in PMID 22673832; conditions: cited from earlier work
[4] = displacement of [3H]N-methylscopolamine 0.2 nM, M1 mAChR membranes from CHO-K1 cells, 27 °C, 120 min, mean ± SEM (n = 2), read-out: IC50
[5] = Cheng-Prusoff from IC50, [3H]N-methylscopolamine 0.2 nM, M1 mAChR membranes from CHO-K1 cells, mean ± SEM (n = 2), read-out: Ki

SMILES	IC50 (cloned human M1 mAChRs; [4])	IC50 (cloned human M1 mAChRs)	other results
COc1cc(OC)c2c(=O)cc(-c3ccc(OC)c(OC)c3)oc2c1 [Compound 1, 3',4',5,7-Tetramethoxyflavone]		> 10000 µM	
COc1cc(OC)c2c(=O)cc(-c3cc(OC)c(OC)c(OC)c3)oc2c1 [Compound 2, 3',4',5',5,7-Pentamethoxyflavone]	> 10000 µM		melting point: 195 °C
COc1ccc(-c2cc(=O)c3c(OC)c(OC)c(OC)cc3o2)cc1OC [Compound 3, 3',4',5,6,7-Pentamethoxyflavone]	> 10000 µM		
O=c1cc(-c2ccc(O)cc2)oc2cc(O)cc(O)c12 [Compound 5, Apigenin]		> 10000 µM	
O=c1cc(-c2ccc(O)c(O)c2)oc2cc(O)cc(O)c12 [Compound 6, Luteolin]		226 ± 14 µM	Ki (cloned human M1 mAChRs): 94 ± 6 µM; cholinesterase inhibitory activity (cholinesterase): cholinesterase inhibitory activity; effect on hydrogen peroxide-induced apoptosis [1]: protective effects; effect against amyloid β25-35 peptide-induced toxicity [2]: anti-amnesic effects; effect on cognitive decline [3]: attenuation of cognitive decline
O=c1c(O)c(-c2cc(O)c(O)c(O)c2)oc2cc(O)cc(O)c12 [Compound 13, Myricetin]		> 10000 µM	

Further lines, with some results ahead:

IC50 (cloned human M1 mAChRs; [4])	SMILES	IC50 (cloned human M1 mAChRs)	other results
257 ± 27 µM	COc1cc(-c2cc(=O)c3c(OC)c(OC)c(OC)cc3o2)cc(OC)c1OC [Compound 4, 3',4',5',5,6,7-Hexamethoxyflavone]		Ki (cloned human M1 mAChRs; [5]): 107 ± 11 µM
> 10000 µM	O=c1c(O)c(-c2ccc(O)c(O)c2)oc2cc(O)ccc12 [Compound 8, Fisetin]		
101 ± 6 µM	COc1cc(O)c2c(=O)c(O)c(-c3ccc(OC)c(O)c3)oc2c1 [Compound 9, 3ʹ,3,5-Trihydroxy-4ʹ,7-dimethoxyflavone]		Ki (cloned human M1 mAChRs; [5]): 42 ± 3 µM; inhibition of DYRK1A kinase (DYRK1A): potent inhibitor; inhibition of CLK1 kinase (CLK1): potent inhibitor
> 10000 µM	COc1ccc(-c2oc3cc(OC)c(OC)cc3c(=O)c2O)cc1OC [Compound 10, 3-Hydroxy-3ʹ,4ʹ,6,7-tetramethoxyflavone]		melting point: 225 to 226 °C
> 10000 µM	O=c1c(O)c(-c2ccc(O)cc2)oc2cc(O)cc(O)c12 [Compound 11, Kaempferol]		
> 10000 µM	O=c1c(O)c(-c2ccc(O)c(O)c2)oc2cc(O)cc(O)c12 [Compound 12, Quercetin]		
